Like-named read-outs stand apart in the source and are kept apart here.
What was measured:
Male ICR mice = assay: animal or person; type: in vivo; settings: for ED50: Mus musculus, ip, read-out: Writhing Test (ED50 = μG/KG); for Relative effect (fold stronger than capsaicin): mouse, in vivo
VR1 [1] = target: T1, VR1 (Rattus norvegicus, UniProt O35433); assay: biochemical; type: binding
T1 construct: expressed in transfected cells; host or cells: Chinese Hamster Ovary cells (CHO, ATCC CCL-61), Tet-off inducible expression

VR1 [2] = target: T1, VR1; assay: cell-based
Male Sprague-Dawley rat = settings: in vivo
[3] = read-out: Binding Affinity (Ki = nM)

T1 sequence (O35433 whole entry): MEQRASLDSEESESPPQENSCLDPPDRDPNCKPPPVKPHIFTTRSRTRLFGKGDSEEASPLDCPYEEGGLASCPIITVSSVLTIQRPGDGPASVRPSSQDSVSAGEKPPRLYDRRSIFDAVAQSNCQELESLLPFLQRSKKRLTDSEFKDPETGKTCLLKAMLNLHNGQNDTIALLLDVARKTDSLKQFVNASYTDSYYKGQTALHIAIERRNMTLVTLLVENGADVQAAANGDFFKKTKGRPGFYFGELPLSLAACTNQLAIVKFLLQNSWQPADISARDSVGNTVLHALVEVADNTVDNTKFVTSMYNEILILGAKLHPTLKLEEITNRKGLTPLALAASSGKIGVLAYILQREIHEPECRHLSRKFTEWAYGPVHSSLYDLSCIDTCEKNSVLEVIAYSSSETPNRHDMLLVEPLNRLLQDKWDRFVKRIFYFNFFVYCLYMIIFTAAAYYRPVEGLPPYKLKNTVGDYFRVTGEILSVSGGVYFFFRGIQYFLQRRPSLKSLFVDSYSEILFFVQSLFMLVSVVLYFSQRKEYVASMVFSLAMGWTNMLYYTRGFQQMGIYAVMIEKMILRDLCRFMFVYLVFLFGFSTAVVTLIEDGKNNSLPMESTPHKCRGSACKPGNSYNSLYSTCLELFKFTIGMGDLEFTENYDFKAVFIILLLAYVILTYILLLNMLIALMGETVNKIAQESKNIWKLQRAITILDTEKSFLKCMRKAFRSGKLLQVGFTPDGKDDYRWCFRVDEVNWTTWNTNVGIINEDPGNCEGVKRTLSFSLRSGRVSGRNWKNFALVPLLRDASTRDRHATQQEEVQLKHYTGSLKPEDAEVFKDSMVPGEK

Row | SMILES | ED50 (Male ICR mice) | Ki (VR1 [1]) | Relative effect (fold stronger than capsaicin) (Male ICR mice) | MPP (moderate pain-producing potency) (Male Sprague-Dawley rat) | RPP (relative pain-producing potency) (Male Sprague-Dawley rat) | further results
1 | COc1cc(CNC(=O)CCCC/C=C/C(C)C)ccc1O [Capsaicin, 8-methyl-N-vanillyl-6-nonenamides, reference compound] | 1.34 µg/kg |  |  |  |  | 
2 | COc1cc(CNC(=S)NCC(CCc2ccc(C)c(C)c2)COC(=O)C(C)(C)C)ccc1O (stereo not shown) [Compound 28, N-[4-(3,4-Dimethylphenyl)-2-(pivaloyloxymethyl)butyl]-N′-[4-hydroxy-3-methoxybenzyl]thiourea] |  | 24.9 nM |  |  |  | 
3 | COc1cc(CNC(=S)NCC(CCc2ccc(C(C)(C)C)cc2)COC(=O)C(C)(C)C)ccc1O (stereo not shown) [Compound 29, N-[4-tert-Butylphenyl-2-(pivaloyloxymethyl)butyl]-N′-[4-hydroxy-3-methoxybenzyl]thiourea] |  | 18.3 nM |  |  |  | 
4 | COc1cc(CC(=O)NCC(CCc2ccc(C)c(C)c2)COC(=O)C(C)(C)C)ccc1O (stereo not shown) [Compound 34, N-[4-(3,4-Dimethylphenyl)-2-(pivaloyloxymethyl)butyl]-2-[4-hydroxy-3-methoxyphenyl]acetamide] | 0.934 µg/kg | 153 nM | 1.4 |  |  | EC50 (VR1 [2]): 0.784 nM; fold stronger effect than JYL-273 (45Ca influx EC50) (VR1 [2]): 4 fold; fold stronger effect than LJO-198 (45Ca influx EC50) (VR1 [2]): 16 fold; fold stronger effect than capsaicin (45Ca influx EC50) (VR1 [2]): 57 fold
5 | COc1cc(CC(=O)NCC(CCc2ccc(C(C)(C)C)cc2)COC(=O)C(C)(C)C)ccc1O (stereo not shown) [Compound 35, N-[4-(4-tert-Butylphenyl)-2-(pivaloyloxymethyl)butyl]-2-[4-hydroxy-3-methoxyphenyl]acetamide] |  | 36.3 nM |  |  |  | 
6 | COc1cc(CC(=O)NCC(CCc2ccc(C)c(C)c2)COC(=O)C(C)(C)C)ccc1OCCN (stereo not shown) [Compound 38, N-[4-(3,4-Dimethylphenyl)-2-(pivaloyloxymethyl)butyl]-2-[4-(2-aminoethoxy)-3-methoxyphenyl]acetamide] | 0.076 µg/kg | 855 nM | 18 | 29 µg/mL | ~5.5 | 
7 | COc1cc(CNC(=S)NC(COC(=O)C(C)(C)C)Cc2ccc(C)c(C)c2)ccc1O (stereo not shown) [Compound 62, N-[3-(3,4-Dimethylphenyl)-1-pivaloyloxy-2-propyl]-N′-[4-hydroxy-3-methoxybenzyl]thiourea] | 0.006 µg/kg | 45.3 nM | 224 | 11.57 µg/mL | 14 | 
8 | COc1cc(CNC(=S)NC(COC(=O)C(C)(C)C)Cc2ccc(C(C)(C)C)cc2)ccc1O (stereo not shown) [Compound 63, N-[3-(4-tert-Butylphenyl)-1-pivaloyloxy-2-propyl]-N′-[4-hydroxy-3-methoxybenzyl]thiourea] | 0.00036 µg/kg | 34.6 nM |  |  |  | 
9 | COc1cc(CNC(=S)NC(CCc2ccc(C)c(C)c2)COC(=O)C(C)(C)C)ccc1O (stereo not shown) [Compound 64, N-[4-(3,4-Dimethylphenyl)-1-pivaloyloxy-2-butyl]-N′-[4-hydroxy-3-methoxybenzyl]thiourea] |  | 244 nM |  |  |  | 
10 | COc1cc(CNC(=S)NC(COC(=O)C(C)(C)C)Cc2ccc(C)c(C)c2)ccc1OCCN (stereo not shown) [Compound 74, N-[3-(3,4-Dimethylphenyl)-1-pivaloyloxy-2-propyl]-N′-[4-(2-aminoethoxy)-3-methoxybenzyl]thiourea] | 3e-05 µg/kg |  |  | 18.02 µg/mL |  | 
11 | COc1cc(CNC(=S)NC(COC(=O)C(C)(C)C)Cc2ccc(C(C)(C)C)cc2)ccc1OCCN (stereo not shown) [Compound 75, N-[3-(4-tert-Butylphenyl)-1-pivaloyloxy-2-propyl]-N′-[4-(2-aminoethoxy)-3-methoxybenzyl]thiourea] | 0.00061 µg/kg | 341 nM |  | 47 µg/mL | ~3.4 | 
12 | COc1cc(CNC(=S)OCC(COC(=O)C(C)(C)C)Cc2ccc(C)c(C)c2)ccc1O (stereo not shown) [Compound 125, N-(4-hydroxy-3-methoxybenzyl)-O-[2-(3,4-Dimethylbenzyl)-3-(pivaloyloxy)propyl]thiocarbamate] |  | 143 nM |  |  |  | 
13 | COc1cc(CNC(=S)OCc2ccc(C(C)(C)C)cc2)ccc1O [Compound 132, O-(4-tert-Butylbenzyl)-N-(4-hydroxy-3-methoxybenzyl) thiocarbamate] |  | 1960 nM |  |  |  | 
14 | COc1cc(COC(=S)NCC(COC(=O)C(C)(C)C)Cc2ccc(C)c(C)c2)ccc1O (stereo not shown) [Compound 140, N-[2-(3,4-Dimethylbenzyl)-3-(pivaloyloxy)propyl]-O-(4-hydroxy-3-methoxybenzyl)thiocarbamate] |  | 156 nM |  |  |  | EC50 (VR1 [2]): 2.4 nM
15 | COc1cc(COC(=S)NCc2ccc(C(C)(C)C)cc2)ccc1O [Compound 147, N-(4-tert-Butylbenzyl)-O-(4-hydroxy-3-methoxybenzyl)thiocarbamate] |  | 1940 nM |  |  |  | 
16 | COc1cc(CNC(=S)NCC(COC(=O)C(C)(C)C)Cc2ccc(C)c(C)c2)ccc1O (stereo not shown) [JYL-79, reference compound] | 0.161 µg/kg |  | 8 | 1.7 µg/mL | 94 | Ki (VR1 [1]; [3]): 17.4 nM
17 | COc1cc(CNC(=S)NCC(COC(=O)C(C)(C)C)Cc2ccc(C(C)(C)C)cc2)ccc1O (stereo not shown) [JYL-273, reference compound] | 0.107 µg/kg |  |  | 23 µg/mL | 7 | Ki (VR1 [1]; [3]): 6.35 nM
18 | COc1cc(CC(=O)NCC(COC(=O)C(C)(C)C)Cc2ccc(C)c(C)c2)ccc1O (stereo not shown) [LJO-198, reference compound] | 0.0235 µg/kg | 157 nM | 57 |  |  | 
19 | COc1cc(CC(=O)NCC(COC(=O)C(C)(C)C)Cc2ccc(C)c(C)c2)ccc1OCCN (stereo not shown) [MSK-195, reference compound] | 1.17 µg/kg | 603 nM | 1.1 | 14.9 µg/mL | 11 | 
